Drawing on US12084436B2, “Heterocyclic compound” (Takeda Pharmaceutical Company Limited, priority 2019, dated 2024), this text covers inhibition for 24 compounds.

The assay concerns the target T1, HDAC6 enzyme (Homo sapiens, UniProt Q9UBN7).
T1 construct: prepared by transducing full length HDAC6 gene into Sf-9 insect cells; GST; purchased SignalChem; host or cells: Sf-9 insect cells
T1 sequence (Q9UBN7 1-1215): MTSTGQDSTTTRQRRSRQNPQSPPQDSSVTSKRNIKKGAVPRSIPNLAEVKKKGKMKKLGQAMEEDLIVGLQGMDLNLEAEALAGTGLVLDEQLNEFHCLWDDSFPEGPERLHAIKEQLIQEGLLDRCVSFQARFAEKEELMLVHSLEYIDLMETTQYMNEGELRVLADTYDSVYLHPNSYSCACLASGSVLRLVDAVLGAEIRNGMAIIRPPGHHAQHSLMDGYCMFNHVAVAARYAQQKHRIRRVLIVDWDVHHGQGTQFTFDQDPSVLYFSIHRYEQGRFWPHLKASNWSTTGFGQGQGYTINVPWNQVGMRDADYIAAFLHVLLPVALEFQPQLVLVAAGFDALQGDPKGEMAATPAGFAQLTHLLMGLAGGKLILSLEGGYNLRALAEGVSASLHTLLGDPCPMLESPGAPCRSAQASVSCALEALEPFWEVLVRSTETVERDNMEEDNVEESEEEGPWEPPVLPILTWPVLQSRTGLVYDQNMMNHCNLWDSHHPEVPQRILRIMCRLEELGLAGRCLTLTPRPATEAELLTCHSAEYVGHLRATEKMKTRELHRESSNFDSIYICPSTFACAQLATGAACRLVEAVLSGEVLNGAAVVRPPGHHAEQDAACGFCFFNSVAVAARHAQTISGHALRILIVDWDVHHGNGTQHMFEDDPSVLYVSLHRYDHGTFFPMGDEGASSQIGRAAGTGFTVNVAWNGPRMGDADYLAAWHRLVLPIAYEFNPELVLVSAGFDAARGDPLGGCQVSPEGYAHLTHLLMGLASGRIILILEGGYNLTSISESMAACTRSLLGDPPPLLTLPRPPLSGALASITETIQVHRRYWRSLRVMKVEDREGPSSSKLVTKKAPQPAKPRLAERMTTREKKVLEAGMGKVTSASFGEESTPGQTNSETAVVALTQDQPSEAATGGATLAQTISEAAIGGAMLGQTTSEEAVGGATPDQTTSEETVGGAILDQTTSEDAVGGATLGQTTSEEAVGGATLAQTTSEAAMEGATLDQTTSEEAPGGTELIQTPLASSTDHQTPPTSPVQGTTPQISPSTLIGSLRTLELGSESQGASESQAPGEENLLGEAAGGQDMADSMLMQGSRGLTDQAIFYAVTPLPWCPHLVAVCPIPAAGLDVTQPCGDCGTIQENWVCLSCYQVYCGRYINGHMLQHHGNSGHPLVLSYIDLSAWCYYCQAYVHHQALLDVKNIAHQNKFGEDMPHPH
The assay is described as follows: HDAC6 enzyme inhibitory assay (HDAC-Glo I/II Assay kit, luminescence). Type of assay: biochemical. Particulars: 10 μM test compound; wells without enzyme = 100% inhibition; read-out: HDAC6 inhibitory rate (%) (10 μM). The procedure, abridged: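 Full-length human HDAC6, GST-purified from Sf-9 cells, was preincubated with compound for 60 min at room temperature in Tris-HCl pH 7.5 buffer with glutathione and Tween-20. Substrate-developer was then added, and luminescence was read after 20 min at room temperature. Inhibition was expressed relative to no-enzyme wells, taken as 100% inhibition.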

Consider `CN(Cc1cccc(-c2cnccn2)c1)N1Cc2ccc(-c3nnc(C(F)F)o3)cc2C1=O` [Example 53c, 6-[5-(difluoromethyl)-1,3,4-oxadiazol-2-yl]-2-(methyl{[3-(pyrazin-2-yl)phenyl]methyl}amino)-2,3-dihydro-1H-isoindol-1-one], for which the inhibition at 10 µM stood at 101%.

On to `Cc1nnc(Cn2ccnc2-c2cc(F)cc(-c3nnc(C(F)F)o3)c2)o1` [Example 54a, 2-(difluoromethyl)-5-(3-fluoro-5-{1-[(5-methyl-1,3,4-oxadiazol-2-yl)methyl]-1H-imidazol-2-yl}phenyl)-1,3,4-oxadiazole], for which the inhibition at 10 µM is 89%.

On to `C[C@@]1(c2ccc(F)cc2)Cc2ncc(-c3nnc(C(F)F)o3)cc2C(=O)N1CC(F)F` [Example 54b, (7S)-6-(2,2-difluoroethyl)-3-[5-(difluoromethyl)-1,3,4-oxadiazol-2-yl]-7-(4-fluorophenyl)-7-methyl-7,8-dihydro-1,6-naphthyridin-5(6H)-one], for which the inhibition at 10 µM was 75%.

As for `CN(C)c1ccc(CN(C)N2Cc3ccc(-c4nnc(C(F)F)o4)cc3C2=O)cc1` [Example 54c, 6-[5-(difluoromethyl)-1,3,4-oxadiazol-2-yl]-2-[{[4-(dimethylamino)phenyl]methyl} (methyl)amino]-2,3-dihydro-1H-isoindol-1-one], the inhibition at 10 µM came to 97%.

Take `Cc1nc(Cn2ccnc2-c2cc(F)cc(-c3nnc(C(F)F)o3)c2)no1` [Example 55a, 3-[(2-{3-[5-(difluoromethyl)-1,3,4-oxadiazol-2-yl]-5-fluorophenyl}-1H-imidazol-1-yl)methyl]-5-methyl-1,2,4-oxadiazole]: the inhibition at 10 µM worked out at 97%.

Regarding `C[C@]1(c2ccc(F)cc2)Cc2ncc(-c3nnc(C(F)F)o3)cc2C(=O)N1CC(F)F` [Example 55b, (7R)-6-(2,2-difluoroethyl)-3-[5-(difluoromethyl)-1,3,4-oxadiazol-2-yl]-7-(4-fluorophenyl)-7-methyl-7,8-dihydro-1,6-naphthyridin-5(6H)-one], the inhibition at 10 µM came to 100%.

For `COCCOc1ccc(CN(C)N2Cc3ccc(-c4nnc(C(F)F)o4)cc3C2=O)cc1` [Example 55c, 6-[5-(difluoromethyl)-1,3,4-oxadiazol-2-yl]-2-[{[4-(2-methoxyethoxy)phenyl]methyl} (methyl)amino]-2,3-dihydro-1H-isoindol-1-one], the inhibition at 10 µM is 101%.

For `Cc1noc(Cn2ccnc2-c2cc(F)cc(-c3nnc(C(F)F)o3)c2)n1` [Example 56a, 5-[(2-{3-[5-(difluoromethyl)-1,3,4-oxadiazol-2-yl]-5-fluorophenyl}-1H-imidazol-1-yl)methyl]-3-methyl-1,2,4-oxadiazole], the inhibition at 10 µM stood at 99%.

For `CC1(c2ccc(F)cc2)Oc2ccc(-c3nnc(C(F)F)o3)cc2C(=O)N1CC(F)F` (stereo not drawn) [Example 56b, 3-(2,2-difluoroethyl)-6-[5-(difluoromethyl)-1,3,4-oxadiazol-2-yl]-2-(4-fluorophenyl)-2-methyl-2,3-dihydro-4H-1,3-benzoxazin-4-one], the inhibition at 10 µM came out at 100%.

In the case of `CN(Cc1cccc(C(F)F)c1)N1Cc2ccc(-c3nnc(C(F)F)o3)cc2C1=O` [Example 56c, 6-[5-(difluoromethyl)-1,3,4-oxadiazol-2-yl]-2-[{[3-(difluoromethyl)phenyl]methyl} (methyl)amino]-2,3-dihydro-1H-isoindol-1-one], the inhibition at 10 µM is 99%.

Consider `Cc1nc(Cn2ccnc2-c2cc(F)cc(-c3nnc(C(F)F)o3)c2)co1` [Example 57a, 2-(difluoromethyl)-5-(3-fluoro-5-{1-[(2-methyl-1,3-oxazol-4-yl)methyl]-1H-imidazol-2-yl}phenyl)-1,3,4-oxadiazole], for which the inhibition at 10 µM is 97%.

With `CN(Cc1ccc(C(F)F)cc1)N1Cc2ccc(-c3nnc(C(F)F)o3)cc2C1=O` [Example 57c, 6-[5-(difluoromethyl)-1,3,4-oxadiazol-2-yl]-2-[{[4-(difluoromethyl)phenyl]methyl} (methyl)amino]-2,3-dihydro-1H-isoindol-1-one], the inhibition at 10 µM is 99%.

Regarding `COc1cncc(Cn2ccnc2-c2cc(F)cc(-c3nnc(C(F)F)o3)c2)n1` [Example 58a, 2-[(2-{3-[5-(difluoromethyl)-1,3,4-oxadiazol-2-yl]-5-fluorophenyl}-1H-imidazol-1-yl)methyl]-6-methoxypyrazine], the inhibition at 10 µM came out at 98%.

`CN(Cc1ccccc1N1CCOCC1)N1Cc2ccc(-c3nnc(C(F)F)o3)cc2C1=O` [Example 58c, 6-[5-(difluoromethyl)-1,3,4-oxadiazol-2-yl]-2-(methyl{[2-(morpholin-4-yl)phenyl]methyl}amino)-2,3-dihydro-1H-isoindol-1-one]: the inhibition at 10 µM amounted to 100%.

Take `Cn1cc(Cn2ccnc2-c2cc(F)cc(-c3nnc(C(F)F)o3)c2)cn1` [Example 59a, 2-(difluoromethyl)-5-(3-fluoro-5-{1-[(1-methyl-1H-pyrazol-4-yl)methyl]-1H-imidazol-2-yl}phenyl)-1,3,4-oxadiazole]: the inhibition at 10 µM came out at 99%.

On to `CN(Cc1ccccc1Oc1cnccn1)N1Cc2ccc(-c3nnc(C(F)F)o3)cc2C1=O` [Example 59c, 6-[5-(difluoromethyl)-1,3,4-oxadiazol-2-yl]-2-[methyl({2-[(pyrazin-2-yl)oxy]phenyl}methyl)amino]-2,3-dihydro-1H-isoindol-1-one], for which the inhibition at 10 µM was 101%.

Turning to `Fc1cc(-c2nnc(C(F)F)o2)cc(-c2nccn2Cc2cscn2)c1` [Example 60a, 2-(difluoromethyl)-5-(3-fluoro-5-{1-[(1,3-thiazol-4-yl)methyl]-1H-imidazol-2-yl}phenyl)-1,3,4-oxadiazole], the inhibition at 10 µM was found to be 98%.

On to `CN(Cc1cncc(Cl)c1)N1Cc2ccc(-c3nnc(C(F)F)o3)cc2C1=O` [Example 60c, 2-{[(5-chloropyridin-3-yl)methyl] (methyl)amino}-6-[5-(difluoromethyl)-1,3,4-oxadiazol-2-yl]-2,3-dihydro-1H-isoindol-1-one], for which the inhibition at 10 µM was found to be 101%.

As for `Cc1cc(Cn2ccnc2-c2cc(F)cc(-c3nnc(C(F)F)o3)c2)no1` [Example 61a, 2-(difluoromethyl)-5-(3-fluoro-5-{1-[(5-methyl-1,2-oxazol-3-yl)methyl]-1H-imidazol-2-yl}phenyl)-1,3,4-oxadiazole], the inhibition at 10 µM stood at 98%.

For `CN(Cc1cccc(N2CCOCC2)c1)N1Cc2ccc(-c3nnc(C(F)F)o3)cc2C1=O` [Example 61c, 6-[5-(difluoromethyl)-1,3,4-oxadiazol-2-yl]-2-(methyl{[3-(morpholin-4-yl)phenyl]methyl}amino)-2,3-dihydro-1H-isoindol-1-one], the inhibition at 10 µM worked out at 99%.

On to `Cc1cc(Cn2ccnc2-c2cc(F)cc(-c3nnc(C(F)F)o3)c2)on1` [Example 62a, 2-(difluoromethyl)-5-(3-fluoro-5-{1-[(3-methyl-1,2-oxazol-5-yl)methyl]-1H-imidazol-2-yl}phenyl)-1,3,4-oxadiazole], for which the inhibition at 10 µM came out at 99%.

As to `CN(CC1CCC(F)(F)CC1)N1Cc2ccc(-c3nnc(C(F)F)o3)cc2C1=O` [Example 62c, 2-{[(4,4-difluorocyclohexyl)methyl](methyl)amino}-6-[5-(difluoromethyl)-1,3,4-oxadiazol-2-yl]-2,3-dihydro-1H-isoindol-1-one], the inhibition at 10 µM came to 100%.

In the case of `Cc1nn(C)cc1Cn1ccnc1-c1cc(F)cc(-c2nnc(C(F)F)o2)c1` [Example 63a, 2-(difluoromethyl)-5-(3-{1-[(1,3-dimethyl-1H-pyrazol-4-yl)methyl]-1H-imidazol-2-yl}-5-fluorophenyl)-1,3,4-oxadiazole], the inhibition at 10 µM came out at 97%.

In the case of `COc1cc(CN(C)N2Cc3ccc(-c4nnc(C(F)F)o4)cc3C2=O)cc(OC)c1` [Example 63c, 6-[5-(difluoromethyl)-1,3,4-oxadiazol-2-yl]-2-{[(3,5-dimethoxyphenyl)methyl](methyl)amino}-2,3-dihydro-1H-isoindol-1-one], the inhibition at 10 µM is 101%.
